Results from patent publication US11136296B2, “Substituted N-arylethyl-2-arylquinoline-4-carboxamides and use thereof” (Bayer Aktiengesellschaft, priority 2017, dated 2021).

molecular target: FP receptor (Homo sapiens (Human), UniProt P43088); experiment: In vitro test of inhibition of human FP receptor activity (PGF2α-induced calcium flux in FP-expressing CHEM1 cells); type: cell-based; conditions: PGF2α-induced (2 nM) calcium flux in FP-expressing CHEM1 cells; some as mean values from multiple determinations
Description: Table 1 below lists the IC50 values from this assay for individual working examples of the invention (some as mean values from multiple independent individual determinations): […]

FP receptor, sequence (P43088 whole entry): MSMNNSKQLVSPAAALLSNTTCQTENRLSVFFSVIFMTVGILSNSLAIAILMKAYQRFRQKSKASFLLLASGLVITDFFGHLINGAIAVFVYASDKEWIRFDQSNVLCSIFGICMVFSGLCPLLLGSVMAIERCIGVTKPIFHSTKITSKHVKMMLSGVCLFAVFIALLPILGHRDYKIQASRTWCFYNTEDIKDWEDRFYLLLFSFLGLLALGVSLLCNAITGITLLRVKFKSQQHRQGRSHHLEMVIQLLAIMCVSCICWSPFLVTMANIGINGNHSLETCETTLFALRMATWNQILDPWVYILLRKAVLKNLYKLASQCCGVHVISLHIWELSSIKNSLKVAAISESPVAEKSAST

| SMILES | IC50 |
| --- | --- |
| COc1ccccc1C(C)(CNC(=O)c1c(C)c(-c2ccccc2)nc2ccc(Br)cc12)C(=O)O (single isomer, unassigned; (-)) [Example 59, (−)-3-{[(6-Bromo-3-methyl-2-phenylquinolin-4-yl)carbonyl]amino}-2-(2-methoxyphenyl)-2-methylpropanoic Acid] | 390 nM |
| Cc1c(-c2ccccc2)nc2ccc(Br)cc2c1C(=O)NCC(C)(C(=O)O)c1c(F)cccc1Cl (single isomer, unassigned; (-)) [Example 62, (−)-3-{[(6-Bromo-3-methyl-2-phenylquinolin-4-yl)carbonyl]amino}-2-(2-chloro-6-fluorophenyl)-2-methylpropanoic Acid] | 43 nM |
| Cc1c(-c2ccccc2)nc2ccc(Br)cc2c1C(=O)NCC(C)(CC(=O)O)c1ncccc1Cl (single isomer, unassigned; (-)) [Example 85, (−)-4-{[(6-Bromo-3-methyl-2-phenylquinolin-4-yl)carbonyl]amino}-3-(3-chloropyridin-2-yl)-3-methylbutanoic Acid] | 16 nM |
| Cc1c(-c2ccccc2)nc2ccc(Br)cc2c1C(=O)NCC(CC(=O)O)c1ccccn1 (single isomer, unassigned; (-)) [Example 103, (−)-4-{[(6-Bromo-3-methyl-2-phenylquinolin-4-yl)carbonyl]amino}-3-(pyridin-2-yl)butanoic Acid] | 290 nM |
| COc1cccnc1C(CNC(=O)c1c(C)c(-c2ccccc2)nc2ccc(Br)cc12)CC(=O)O (single isomer, unassigned; (-)) [Example 109, (−)-4-{[(6-Bromo-3-methyl-2-phenylquinolin-4-yl)carbonyl]amino}-3-(3-methoxypyridin-2-yl)butanoic Acid] | 75 nM |
| Cc1c(-c2ccccc2)nc2ccc(Br)cc2c1C(=O)NCC(C)(CC(=O)O)c1ccccc1F (single isomer, unassigned; (-)) [Example 116, (−)-4-{[(6-Bromo-3-methyl-2-phenylquinolin-4-yl)carbonyl]amino}-3-(2-fluorophenyl)-3-methylbutanoic Acid] | 74 nM |
| Cc1c(-c2ccccc2)nc2ccc(Br)cc2c1C(=O)NCC(C)(CC(=O)O)c1ccccn1 (single isomer, unassigned; (-)) [Example 119, (−)-4-{[(6-Bromo-3-methyl-2-phenylquinolin-4-yl)carbonyl]amino}-3-methyl-3-(pyridin-2-yl)butanoic Acid] | 150 nM |
| COc1ccccc1C(C)(CNC(=O)c1c(C)c(-c2ccccc2)nc2ccc(Br)cc12)CC(=O)O (single isomer, unassigned; (-)) [Example 122, (−)-4-{[(6-Bromo-3-methyl-2-phenylquinolin-4-yl)carbonyl]amino}-3-(2-methoxyphenyl)-3-methylbutanoic Acid] | 460 nM |
| COc1c(F)cc(F)cc1C(C)(CNC(=O)c1c(C)c(-c2ccccc2)nc2ccc(Br)cc12)CC(=O)O (single isomer, unassigned; (-)) [Example 137, (−)-4-{[(6-Bromo-3-methyl-2-phenylquinolin-4-yl)carbonyl]amino}-3-(3,5-difluoro-2-methoxyphenyl)-3-methylbutanoic Acid] | 440 nM |
| COc1cccc(F)c1C(C)(CNC(=O)c1c(C)c(-c2ccccc2)nc2ccc(Br)cc12)CC(=O)O (single isomer, unassigned; (-)) [Example 144, (−)-4-{[(6-Bromo-3-methyl-2-phenylquinolin-4-yl)carbonyl]amino}-3-(2-fluoro-6-methoxyphenyl)-3-methylbutanoic Acid] | 130 nM |
| Cc1c(-c2ccccc2)nc2ccc(Br)cc2c1C(=O)NC(C)C(CC(=O)O)c1ccccc1Cl (single isomer, unassigned; (-)) [Example 146, (−)-4-{[(6-Bromo-3-methyl-2-phenylquinolin-4-yl)carbonyl]amino}-3-(2-chlorophenyl)pentanoic Acid] | > 1000 nM |
| Cc1c(-c2ccccc2)nc2ccc(Br)cc2c1C(=O)NC(C)C(CC(=O)O)c1ccccc1Cl (single isomer, unassigned; (-)) [Example 149, (−)-4-{[(6-Bromo-3-methyl-2-phenylquinolin-4-yl)carbonyl]amino}-3-(2-chlorophenyl)pentanoic Acid] | > 1000 nM |
| Cc1c(-c2ccccc2)nc2ccc(Br)cc2c1C(=O)NCC(CCC(=O)O)c1ccccc1Cl (single isomer, unassigned; (-)) [Example 152, (−)-5-{[(6-Bromo-3-methyl-2-phenylquinolin-4-yl)carbonyl]amino}-4-(2-chlorophenyl)pentanoic Acid] | 7.9 nM |
| Cc1c(-c2ccccc2)nc2ccc(Br)cc2c1C(=O)NCC(C)(CCC(=O)O)c1ccccc1Cl (single isomer, unassigned; (-)) [Example 155, (−)-5-{[(6-Bromo-3-methyl-2-phenylquinolin-4-yl)carbonyl]amino}-4-(2-chlorophenyl)-4-methylpentanoic Acid] | 60 nM |

Further lines, results first:

| IC50 | SMILES |
| --- | --- |
| 340 nM | Cc1c(-c2ccccc2)nc2ccc(Br)cc2c1C(=O)NCC(CC(=O)O)c1ccccc1 (single isomer, unassigned; (-)) [Example 64, (−)-4-{[(6-Bromo-3-methyl-2-phenylquinolin-4-yl)carbonyl]amino}-3-phenylbutanoic Acid] |
| > 1000 nM | Cc1c(-c2ccccc2)nc2ccc(Br)cc2c1C(=O)NCC(CC(=O)O)c1ccc(Cl)cc1 (single isomer, unassigned; (-)) [Example 68, (−)-4-{[(6-Bromo-3-methyl-2-phenylquinolin-4-yl)carbonyl]amino}-3-(4-chlorophenyl)butanoic Acid] |
| 23 nM | Cc1ccccc1C(CNC(=O)c1c(C)c(-c2ccccc2)nc2ccc(Br)cc12)CC(=O)O (single isomer, unassigned; (-)) [Example 76, (−)-4-{[(6-Bromo-3-methyl-2-phenylquinolin-4-yl)carbonyl]amino}-3-(2-methylphenyl)butanoic Acid] |
| 19 nM | Cc1c(-c2ccccc2)nc2ccc(Br)cc2c1C(=O)NCC(CC(=O)O)c1c(F)cccc1Cl (single isomer, unassigned; (-)) [Example 88, (−)-4-{[(6-Bromo-3-methyl-2-phenylquinolin-4-yl)carbonyl]amino}-3-(2-chloro-6-fluorophenyl)butanoic Acid] |
| 320 nM | Cc1ccc(C(CNC(=O)c2c(C)c(-c3ccccc3)nc3ccc(Br)cc23)CC(=O)O)cc1 (single isomer, unassigned; (-)) [Example 92, (−)-4-{[(6-Bromo-3-methyl-2-phenylquinolin-4-yl)carbonyl]amino}-3-(4-methylphenyl)butanoic Acid] |
| 20 nM | Cc1c(-c2ccccc2)nc2ccc(Br)cc2c1C(=O)NCC(CC(=O)O)c1ccccc1OC(F)(F)F (single isomer, unassigned; (-)) [Example 100, (−)-4-{[(6-Bromo-3-methyl-2-phenylquinolin-4-yl)carbonyl]amino}-3-[2-(trifluoromethoxy)phenyl]butanoic Acid] |
| 51 nM | Cc1c(-c2ccccc2)nc2ccc(Br)cc2c1C(=O)NCC(CC(=O)O)c1ccccc1C(F)(F)F (single isomer, unassigned; (-)) [Example 107, (−)-4-{[(6-Bromo-3-methyl-2-phenylquinolin-4-yl)carbonyl]amino}-3-[2-(trifluoromethyl)phenyl]butanoic Acid] |
| 97 nM | COc1ccc(F)cc1C(CNC(=O)c1c(C)c(-c2ccccc2)nc2ccc(Br)cc12)CC(=O)O (single isomer, unassigned; (-)) [Example 125, (−)-4-{[(6-Bromo-3-methyl-2-phenylquinolin-4-yl)carbonyl]amino}-3-(5-fluoro-2-methoxyphenyl)butanoic Acid] |
| 110 nM | COc1cccc(F)c1C(CNC(=O)c1c(C)c(-c2ccccc2)nc2ccc(Br)cc12)CC(=O)O (single isomer, unassigned; (-)) [Example 128, (−)-4-{[(6-Bromo-3-methyl-2-phenylquinolin-4-yl)carbonyl]amino}-3-(2-fluoro-6-methoxyphenyl)butanoic Acid] |
| 320 nM | CCOc1ccccc1C(CNC(=O)c1c(C)c(-c2ccccc2)nc2ccc(Br)cc12)CC(=O)O (single isomer, unassigned; (-)) [Example 130, (−)-4-{[(6-Bromo-3-methyl-2-phenylquinolin-4-yl)carbonyl]amino}-3-(2-ethoxyphenyl)butanoic Acid] |
| 800 nM | COc1ccc(F)cc1C(C)(CNC(=O)c1c(C)c(-c2ccccc2)nc2ccc(Br)cc12)CC(=O)O (single isomer, unassigned; (-)) [Example 134, (−)-4-{[(6-Bromo-3-methyl-2-phenylquinolin-4-yl)carbonyl]amino}-3-(5-fluoro-2-methoxyphenyl)-3-methylbutanoic Acid] |
| > 1000 nM | COc1cc(F)ccc1C(C)(CNC(=O)c1c(C)c(-c2ccccc2)nc2ccc(Br)cc12)CC(=O)O (single isomer, unassigned; (-)) [Example 140, (−)-4-{[(6-Bromo-3-methyl-2-phenylquinolin-4-yl)carbonyl]amino}-3-(4-fluoro-2-methoxyphenyl)-3-methylbutanoic Acid] |
| 3.5 nM | Cc1c(-c2ccccc2)nc2ccc(Br)cc2c1C(=O)NCC(CCC(=O)O)c1c(F)cccc1Cl (single isomer, unassigned; (-)) [Example 158, (−)-5-{[(6-Bromo-3-methyl-2-phenylquinolin-4-yl)carbonyl]amino}-4-(2-chloro-6-fluorophenyl)pentanoic Acid] |
| 8.2 nM | Cc1ccccc1C(CCC(=O)O)CNC(=O)c1c(C)c(-c2ccccc2)nc2ccc(Br)cc12 (single isomer, unassigned; (-)) [Example 161, (−)-5-{[(6-Bromo-3-methyl-2-phenylquinolin-4-yl)carbonyl]amino}-4-(2-methylphenyl)pentanoic Acid] |
| 15 nM | Cc1c(-c2ccccc2)nc2ccc(Br)cc2c1C(=O)NCC(CCC(=O)O)c1cc(F)ccc1Cl (single isomer, unassigned; (-)) [Example 164, (−)-5-{[(6-Bromo-3-methyl-2-phenylquinolin-4-yl)carbonyl]amino}-4-(2-chloro-5-fluorophenyl)pentanoic Acid] |
